Laboratory results taken from PubChem BioAssay AID488890 (Southern Research Specialized Biocontainment Screening …, 2010).
Inconclusive results are not listed. The source made the active and inactive calls. How the calls were made is not given here.

system: Mycobacterium tuberculosis non-replicating, growth inhibition; experiment: growth inhibition of non-replicating M. tuberculosis (AID 488890)

| SMILES | IC50 |
| --- | --- |
| O=C(N/N=C/c1ccc([N+](=O)[O-])o1)c1cc2ccccc2o1 | 0.46 µM |
| CCOC(=O)Nc1cccc(OCC(=O)Nc2ccccc2OC)c1 | 16.6 µM (inactive) |
| CCOc1cccc(/C=N/NC(=O)c2ccc3c(c2)OCCO3)c1O | 1.12 µM |
| Cc1ccnc(NS(=O)(=O)c2ccc(NC(=O)c3ccc([N+](=O)[O-])s3)cc2)n1 | 8.3 µM |
| O=C(CN1CCCCC1)Nc1nnc(-c2ccc([N+](=O)[O-])cc2)s1 | 11.7 µM (inactive) |
| Cc1n[nH]c(=S)n1/N=C/c1ccc(OCc2ccc(Cl)cc2Cl)cc1 | 37.5 µM (inactive) |
| CC1=NN(C(=O)c2ccc(Cn3nc(C)c(Br)c3C)cc2)C(O)(C(F)(F)F)C1 (centres undefined) | 0.58 µM |
| CCOC(=O)C1CCN(CCCSc2ccc(Cl)cc2)CC1 | 46.4 µM (inactive) |
| O=c1[nH]c(=O)n(Cc2ccccc2Cl)c(O)c1/C=C1/C=CC=N1 | 0.25 µM |
| CC(C)c1nnc(NC(=O)c2sc3ccccc3c2Cl)s1 | 9.84 µM |
| Cc1ccc(C)c(-c2nnc(NC(=O)COc3ccccc3)o2)c1 | 1.29 µM |
| Cc1ccc(N=Nc2c(C)[nH]n(C(N)=S)c2=O)cc1 | 2.35 µM |
| COc1ccc2cc(C(=O)NCc3ccccc3)c(=O)oc2c1 | 39.3 µM (inactive) |
| O=C(COc1ccc2ccccc2c1)NNC(=O)c1cccs1 | 4.52 µM |
| CC1=Nc2ccccc2/C1=C/c1sc(=N)n(-c2nccs2)c1O | 1.51 µM |
| Cc1cc(NC(=O)c2ccccc2F)n(-c2nc3ccccc3[nH]2)n1 | 7.5 µM |
| CCOC(=O)C1CCCc2c1[nH]c1c(C(N)=O)cccc21 (centres undefined) | 9.99 µM |
| CCCCNC(=O)COC(=O)c1cc(Br)ccc1Cl | 3.86 µM |
| O=C(Nc1nnc(-c2ccc3c(c2)CCCC3)o1)c1c(F)cccc1F | 3.12 µM |
| O=C(NNc1ccc([N+](=O)[O-])cc1)C1CC2CCCC(C1)C2=O (centres undefined) | 16.2 µM (inactive) |
| Cn1cccc1/C=C1/C(=O)NC(=S)N(Cc2ccc(F)cc2)C1=O | 6.03 µM |

| SMILES | IC50 |
| --- | --- |
| CC(C)(C)c1ccc(OCCCC(=O)NC2=NCCS2)cc1 | 9.76 µM |
| O=C(NCCCN1CCOCC1)c1c(O)c2cc(Br)cc(Br)c2[nH]c1=O | 0.8 µM |
| COC(=O)c1ccc(COC(=O)c2ccccn2)cc1 | 7.11 µM |
| COc1ccc(C(=O)NNC2=C(C(=O)C(F)(F)F)CCC2)cc1 | 1.9 µM |
| O=S1(=O)C=C(Sc2nnc(-c3ccccc3)o2)c2ccccc21 | < 0.1 µM |
| CCOC(=O)C1CCCN(Cc2nc(Cc3ccccc3Cl)no2)C1 (centres undefined) | 27.1 µM (inactive) |
| Cc1ccc(C(=O)Nc2nnc(-c3ccncc3)o2)cc1 | 23.3 µM (inactive) |
| Cc1ccc(C)c(NC(=O)COC(=O)c2cc3ccccc3oc2=O)c1 | 17 µM (inactive) |
| Nc1c(Cl)cc(Cl)cc1C(=O)OCC(=O)N1CCCC1 | 2.46 µM |
| CCOC(=O)C1=C(C)C/C(=N\NC(=O)c2ccccc2O)CC1 | 4.22 µM |
| CCOC(=O)Cn1cc(C#N)c2ccccc21 | 6.17 µM |
| CCn1c(NC(=O)C2CCCCC2)nc2ccccc21 | 4.53 µM |
| CCC(=O)c1ccc(OCc2ccc(C(=O)OC)cc2)cc1 | 10.8 µM (inactive) |
| O=C(CN1CCC(NC(=O)c2cccc(F)c2)CC1)Nc1ccc(Br)cc1 | 31.9 µM (inactive) |
| CC1(C)CC(=O)C2=C(C1)OC(N)=C(C#N)C2C#Cc1ccccc1 (centres undefined) | 4.07 µM |
| O=C(Nc1ccc(Cl)c(Cl)c1)O/N=C/c1ccncc1 | 15.5 µM (inactive) |
| Cc1cc(C)c2sc(NC(=O)C3=COCCO3)nc2c1 | 8.29 µM |
| COc1ccc(NC(=O)c2ccc(COCC(F)(F)C(F)F)cc2)cc1 | 12.6 µM (inactive) |
| CCOC(=O)COc1ccc2c(c1)c(C(=O)OCC)c(C)n2CC | 10.9 µM (inactive) |
| CCOCC(=O)Nc1nc2ccc(C)cc2s1 | 2.06 µM |
| S=c1[nH]cnc2sc(-c3ccccc3)cc12 | 33.3 µM (inactive) |

| SMILES | IC50 |
| --- | --- |
| O=[N+]([O-])c1cc([N+](=O)[O-])c2cc3ccccc3nc2c1 | < 0.1 µM |
| O=C(Nc1nnc(-c2ccccc2Cl)o1)c1cccnc1 | 23.2 µM (inactive) |
| CN(C)S(=O)(=O)c1ccc(C(=O)Oc2ccccc2)cc1 | 2.41 µM |
| CCOC(=O)c1cc(-c2csc(COc3ccc(Cl)cc3)n2)on1 | 0.13 µM |
| Nc1ncnc(Oc2cccc3cccnc23)c1[N+](=O)[O-] | 4.36 µM |
| O=C(O)c1[nH]c(=O)[nH]c(=O)c1F | 5.7 µM |
| COc1cccc2cc(-c3nc4ccccc4[nH]3)c(=O)oc12 | < 0.2 µM |
| CN1CCN(c2cc3c(cc2F)c(=O)c(C(=O)O)cn3CCF)CC1 | 7.52 µM |
| Nc1c(C(=O)NC2CCCCC2)nsc1C(=O)OCC(=O)NC1CCCCC1 | 3.27 µM |
| COC(=O)COc1ccc2c(=O)c(-c3ccccc3OC)coc2c1 | 7.87 µM |
| O=C(CCN1CCC(c2ccccc2)C1)c1ccccc1 (centres undefined) | 33.1 µM (inactive) |
| Cn1c(O)c(C(=Nc2ccccc2)SCc2ccccc2Cl)c(=O)n(C)c1=O | 8.25 µM |
| O=C(COC(=O)c1cccc([N+](=O)[O-])c1)NCc1cccs1 | 25.7 µM (inactive) |
| Cc1cccc(-c2nnc3sc(-c4ccccc4C)nn23)c1 | 22.4 µM (inactive) |
| CC(=O)Oc1ccc(/C=C2\N=C(C3CCCCC3)OC2=O)cc1 | 9.08 µM |
| CCN1CSC(=S)N(Cc2ccc(OC)cc2)C1 | 18.5 µM (inactive) |
| Cc1cc(OCc2cc(C(=O)N(C)CCc3cnn(C)c3)no2)cc(C)c1Cl | 30.6 µM (inactive) |
| CC(=O)c1ccc(NC(=O)c2cc(CC(C)C)on2)cc1 | 3.58 µM |
| CCCCOc1ccc(NC(=O)CN2CCN(Cc3ccccc3)CC2)cc1 | 25.6 µM (inactive) |
| O=[N+]([O-])c1c(Nc2ccccn2)cc(Cl)c2nonc12 | < 0.1 µM |
| O=C(CN1CCC(Cc2ccccc2)CC1)NC(=O)NC1CCCCC1 | 19 µM (inactive) |

| SMILES | IC50 |
| --- | --- |
| CCOC(=O)Cn1c2ccc(F)cc2c2nc(C)sc21 | 13.8 µM (inactive) |
| CC(NCc1ccc(OCc2ccc(Cl)cc2)cc1)C(O)c1ccccc1 (centres undefined) | 6.84 µM |
| O=C1c2ccccc2-n2c1nc1ccccc1c2=O | 2.8 µM |
| COC(=O)CCCCCN1C(=O)/C(=C\c2ccncc2)SC1=S | 3.94 µM |
| COc1cc(NC(=O)C/C(C)=N/NC(=O)c2cccs2)c(OC)cc1Cl | 7.93 µM |
| CCN(CC)Cc1ccc(NC(=O)c2sc3cc(Cl)ccc3c2Cl)cc1 | 11.2 µM (inactive) |
| COC(=O)COc1ccc(-c2ccc(F)cc2)cc1C=O | 5.82 µM |
| CCOC(=O)C(C)Oc1cc(Cl)c(C=O)cc1OC (centres undefined) | 8.06 µM |
| CC(Oc1ccc2ccccc2c1)C(=O)NNC(=S)NC(=O)c1ccco1 (centres undefined) | 22.1 µM (inactive) |
| FC(F)(F)c1nnc2ccc(Cl)nn12 | 1.56 µM |
| CCOC(=O)COc1cc([N+](=O)[O-])cc2cccnc12 | 25.5 µM (inactive) |
| O=C(Nc1cccc([N+](=O)[O-])c1)C1COc2ccccc2O1 (centres undefined) | 21 µM (inactive) |
| Cc1ccc(CSc2nnc(-c3cccnc3)o2)cc1 | 1.49 µM |
| CCCCCCOc1ccc(C(=O)O)cc1C#N | 42.7 µM (inactive) |
| Cc1ccc(NC(=O)CC2SC3=NCCCN3C2=O)c(C)c1 (centres undefined) | 18.8 µM (inactive) |
| Cc1[nH]n(-c2ccc(Cl)cc2)c(=O)c1N=Nc1cccnc1 | 1.37 µM |
| O=c1[nH]c(-c2ccccn2)nc2ccccc12 | 9.66 µM |
| Clc1cccc2c1Sc1ccccc1CC2N1CCNCC1 (centres undefined) | 5.98 µM |
| CC1=NN(C(=O)c2ccoc2C)C(O)(C(F)(F)F)C1 (centres undefined) | 1.63 µM |
| O=C(Nc1nccs1)c1sc2ccccc2c1Cl | 14.3 µM (inactive) |
| Cn1c(=O)c(Oc2ccc(F)cc2)c(O)c2ccccc21 | 8.27 µM |
